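In this assay, cells in 96-well plates receive the compound at five concentrations for 48 hours. Endpoints are linearly interpolated between the surrounding concentrations. The concentration for 50% growth inhibition is given as GI50.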 Activity calls are given as the source filed them. Rule as the data show it: active = GI50 up to about 1.1 µM and inactive = higher.
Columns and labels:
Experiment in all cases: NCI anticancer screen, dose series, 48 h
[1] = system: KM12
[2] = system: MOLT-4
[3] = system: SNB-75
[4] = system: UACC-62
[5] = system: SW-620
[6] = system: NCI-H460
[7] = system: SK-MEL-28
[8] = system: A549
[9] = system: SF-539
[10] = system: OVCAR-3
[11] = system: EKVX
[12] = system: NCI-H23
[13] = system: HT-29
[14] = system: SK-MEL-5
[15] = system: COLO 205
[16] = system: HCT-116
[17] = system: NCI-H226
[18] = system: RPMI-8226
[19] = system: SR

Structure (SMILES) | GI50 [1] | GI50 [2] | GI50 [3] | GI50 [4] | GI50 [5] | GI50 [6] | GI50 [7] | GI50 [8] | GI50 [9] | GI50 [10] | GI50 [11] | GI50 [12] | GI50 [13] | GI50 [14] | GI50 [15] | GI50 [16] | GI50 [17] | GI50 [18] | GI50 [19]
O=S(O)CCCSSc1ccccc1 | 31.1 µM (inactive) | 17.5 µM (inactive) | 20.8 µM (inactive) | 36.6 µM (inactive) | 47.3 µM (inactive) | 78.3 µM (inactive) | 54.6 µM (inactive) | 25.5 µM (inactive) | 25.3 µM (inactive) | 53.8 µM (inactive) | 36.1 µM (inactive) | 66.7 µM (inactive) | 46.9 µM (inactive) | 22.5 µM (inactive) | 43.4 µM (inactive) | 37.7 µM (inactive) |  |  | 
O=C1CCC(=O)c2sccc2N1 | > 100 µM (inactive) | > 100 µM (inactive) | > 100 µM (inactive) |  | > 100 µM (inactive) | > 100 µM (inactive) | > 100 µM (inactive) | > 100 µM (inactive) | > 100 µM (inactive) | > 100 µM (inactive) | > 100 µM (inactive) | > 100 µM (inactive) | > 100 µM (inactive) | > 100 µM (inactive) | > 100 µM (inactive) | > 100 µM (inactive) | > 100 µM (inactive) | > 100 µM (inactive) | 
COc1ccc2c(c1)C=C(C(C)(C)C)NS2(=O)=O | > 100 µM (inactive) | > 100 µM (inactive) | > 100 µM (inactive) | > 100 µM (inactive) | > 100 µM (inactive) | > 100 µM (inactive) | > 100 µM (inactive) | > 100 µM (inactive) | > 100 µM (inactive) | > 100 µM (inactive) | > 100 µM (inactive) | > 100 µM (inactive) | > 100 µM (inactive) | > 100 µM (inactive) | > 100 µM (inactive) | > 100 µM (inactive) | > 100 µM (inactive) |  | > 100 µM (inactive)
O=C(N/C(=C\c1ccccc1O)c1nc2ccccc2[nH]1)c1ccccc1 | > 100 µM (inactive) | > 100 µM (inactive) | 12.8 µM (inactive) | > 100 µM (inactive) | > 100 µM (inactive) | > 100 µM (inactive) | > 100 µM (inactive) | > 100 µM (inactive) | 75.7 µM (inactive) | > 100 µM (inactive) | 37.8 µM (inactive) | 40.6 µM (inactive) | > 100 µM (inactive) | 95.7 µM (inactive) | > 100 µM (inactive) | 89.7 µM (inactive) |  | > 100 µM (inactive) | 
CC(C)(c1ccc(C=O)o1)c1ccc(C(C)(C)c2ccc(C=O)o2)o1 | > 100 µM (inactive) | > 100 µM (inactive) |  |  | > 100 µM (inactive) | > 100 µM (inactive) | > 100 µM (inactive) | > 100 µM (inactive) | > 100 µM (inactive) |  | > 100 µM (inactive) | > 100 µM (inactive) | > 100 µM (inactive) |  | > 100 µM (inactive) | > 100 µM (inactive) | > 100 µM (inactive) |  | > 100 µM (inactive)
COc1cccc(NC(=O)C(=O)C(C(C)=O)c2nc3ccc(Cl)cc3nc2O)c1 (stereo unspecified) | > 100 µM (inactive) | > 100 µM (inactive) | 54.7 µM (inactive) | > 100 µM (inactive) | > 100 µM (inactive) | > 100 µM (inactive) | > 100 µM (inactive) | > 100 µM (inactive) | > 100 µM (inactive) | > 100 µM (inactive) | > 100 µM (inactive) | > 100 µM (inactive) | > 100 µM (inactive) | > 100 µM (inactive) | > 100 µM (inactive) | > 100 µM (inactive) | > 100 µM (inactive) | > 100 µM (inactive) | 
CC(=O)OCC1OC(n2cc(F)c(=O)[nH]c2=O)C(NC(=O)N(CCCl)N=O)C(OC(C)=O)C1OC(C)=O (stereo unspecified) | > 100 µM (inactive) | 87.1 µM (inactive) | 16.6 µM (inactive) | 23.2 µM (inactive) | > 100 µM (inactive) | 18.7 µM (inactive) | > 100 µM (inactive) | 89.7 µM (inactive) | 29.3 µM (inactive) | > 100 µM (inactive) |  | > 100 µM (inactive) | > 100 µM (inactive) | > 100 µM (inactive) | > 100 µM (inactive) | > 100 µM (inactive) |  | > 100 µM (inactive) | 97.9 µM (inactive)
COC(=O)C(C(=O)C(=O)Nc1ccc(C)cc1)c1nc2ccc([N+](=O)[O-])cc2nc1O (stereo unspecified) | > 100 µM (inactive) | 92.9 µM (inactive) | > 100 µM (inactive) | 85.7 µM (inactive) | > 100 µM (inactive) | > 100 µM (inactive) | > 100 µM (inactive) | > 100 µM (inactive) | > 100 µM (inactive) | > 100 µM (inactive) | > 100 µM (inactive) | > 100 µM (inactive) | > 100 µM (inactive) | 49.1 µM (inactive) | 53.5 µM (inactive) | > 100 µM (inactive) | > 100 µM (inactive) |  | > 100 µM (inactive)
CC1CC(c2cccc3c2OCO3)=Nc2ccccc2S1 (stereo unspecified) | > 100 µM (inactive) | > 100 µM (inactive) | > 100 µM (inactive) | > 100 µM (inactive) | > 100 µM (inactive) | > 100 µM (inactive) | > 100 µM (inactive) | > 100 µM (inactive) | > 100 µM (inactive) | > 100 µM (inactive) | > 100 µM (inactive) | > 100 µM (inactive) | > 100 µM (inactive) | > 100 µM (inactive) | > 100 µM (inactive) |  | > 100 µM (inactive) | > 100 µM (inactive) | 
CN(C)c1ccc(-c2nc(N)nc3c2CCCC3)cc1 | 54 µM (inactive) | 30.2 µM (inactive) | 42 µM (inactive) | 44.7 µM (inactive) | > 100 µM (inactive) | 65.2 µM (inactive) | 61.8 µM (inactive) | 52.8 µM (inactive) | > 100 µM (inactive) | 23.4 µM (inactive) | 28.4 µM (inactive) | 64.7 µM (inactive) |  | 34.7 µM (inactive) | 42.5 µM (inactive) | 38.3 µM (inactive) | 51.3 µM (inactive) | 30 µM (inactive) | 
CCOc1ccc(NC(=O)C2=C(C)NC(C)=C(C(=O)Nc3ccc(OCC)cc3)C2c2ccccc2)cc1 | 41.7 µM (inactive) | 44.8 µM (inactive) | 95.7 µM (inactive) |  | > 100 µM (inactive) | > 100 µM (inactive) | > 100 µM (inactive) | > 100 µM (inactive) | > 100 µM (inactive) | > 100 µM (inactive) | > 100 µM (inactive) | > 100 µM (inactive) | > 100 µM (inactive) | 74.3 µM (inactive) | > 100 µM (inactive) |  | > 100 µM (inactive) | 49.9 µM (inactive) | 
Nc1ncnc2c1nnn2C1C=C(CO)C(O)C1O (stereo unspecified) | 36.6 µM (inactive) | > 100 µM (inactive) | 30.9 µM (inactive) | > 100 µM (inactive) | 29.4 µM (inactive) | 40.8 µM (inactive) | 65.3 µM (inactive) | 58.1 µM (inactive) | > 85.3 µM (inactive) | > 100 µM (inactive) | > 100 µM (inactive) | > 78.9 µM (inactive) | 35.3 µM (inactive) | > 100 µM (inactive) | > 36 µM (inactive) | 27.8 µM (inactive) | > 100 µM (inactive) | 20.3 µM (inactive) | 
O=C(C(=O)c1ccc(Cc2ccc(C(=O)C(=O)c3ccccc3)cc2)cc1)c1ccccc1 | > 100 µM (inactive) |  | > 100 µM (inactive) | > 100 µM (inactive) | > 100 µM (inactive) | > 100 µM (inactive) | > 100 µM (inactive) | > 100 µM (inactive) | > 100 µM (inactive) | > 100 µM (inactive) | > 100 µM (inactive) | > 100 µM (inactive) | > 100 µM (inactive) | > 100 µM (inactive) | > 100 µM (inactive) | > 100 µM (inactive) | > 100 µM (inactive) |  | 
CC(C)[C@@H](COC(C)(C)C)/N=C/N1CCc2c([nH]c3ccccc23)C1 | > 100 µM (inactive) | > 100 µM (inactive) | > 100 µM (inactive) | > 100 µM (inactive) | > 100 µM (inactive) | > 100 µM (inactive) | > 100 µM (inactive) | > 100 µM (inactive) | > 100 µM (inactive) | > 100 µM (inactive) | > 100 µM (inactive) | > 100 µM (inactive) | > 100 µM (inactive) | > 100 µM (inactive) | > 100 µM (inactive) | > 100 µM (inactive) | > 100 µM (inactive) | > 100 µM (inactive) | 
CC1(C)COC(c2cccc3c2C(=O)c2cccc(Cl)c2-3)=N1 | 47.9 µM (inactive) | 29.2 µM (inactive) | 41.7 µM (inactive) | 51.5 µM (inactive) | 37.8 µM (inactive) | 50.4 µM (inactive) | 58.7 µM (inactive) | 58.1 µM (inactive) | 68.7 µM (inactive) | 78.2 µM (inactive) | 38.3 µM (inactive) | 52.5 µM (inactive) | 32 µM (inactive) | 25.3 µM (inactive) | 42.9 µM (inactive) |  |  | 31.7 µM (inactive) | 
CN(C)CC/C(=N\Nc1ccc(Cl)cc1)c1ccccc1 | 0.589 µM (active) | 0.403 µM (active) | 2.15 µM (inactive) | 0.556 µM (active) | 0.431 µM (active) | 1.1 µM (active) | 1.52 µM (inactive) | 1.47 µM (inactive) | 1.92 µM (inactive) | 1.51 µM (inactive) | 1.36 µM (inactive) | 1.95 µM (inactive) | 1.28 µM (inactive) | 1.7 µM (inactive) | 1.75 µM (inactive) | 1.18 µM (inactive) |  | 0.64 µM (active) | 0.415 µM (active)
